Assay results taken from ChEMBL document CHEMBL1158710, “Cytotoxic flavonoids from Platymiscium floribundum” (J Nat Prod, 2005).
Values after ≈ are worked out from the molar mass of the structure shown.

Key:
Type in all cases: functional, cell-based
B16 = experiment: Cytotoxicity against mouse B16 cells after 72 hrs by MTT assay; conditions: B16, 72 h
MCF7 = experiment: Cytotoxicity against human MCF7 cells after 72 hrs by MTT assay; conditions: MCF7, 72 h
HL-60 = experiment: Cytotoxicity against human HL60 cells after 72 hrs by MTT assay; conditions: HL-60, 72 h
CCRF-CEM = experiment: Cytotoxicity against human CEM cells after 72 hrs by MTT assay
HCT-8 = experiment: Cytotoxicity against human HCT8 cells after 72 hrs by MTT assay; conditions: HCT-8, 72 h

| Structure (SMILES) | IC50 (B16) [mg/L] | IC50 (MCF7) [mg/L] | IC50 (HL-60) [mg/L] | IC50 (CCRF-CEM) [mg/L] | IC50 (HCT-8) [mg/L] |
| --- | --- | --- | --- | --- | --- |
| COc1ccc2c(c1)OC1c3cc(OC)c(OC)cc3OCC21 (stereo unspecified) | 2.9 (≈ 9.23 µM) | 0.7 (≈ 2.23 µM) | 0.1 (≈ 0.318 µM) | 0.6 (≈ 1.91 µM) | 0.6 (≈ 1.91 µM) |
| COc1cccc2c1C(=O)c1c(O)c3c(c(O)c1C2=O)C[C@@](O)(C(=O)CO)C[C@@H]3O[C@H]1C[C@H](N)[C@H](O)[C@H](C)O1 [DOXORUBICIN] |  | 0.2 (≈ 0.368 µM) |  |  |  |
| COc1ccc2c(c1)O[C@H]1c3ccc(OC)cc3OC[C@@H]21 [HOMOPTEROCARPIN] | 5.2 (≈ 18.3 µM) | 18.5 (≈ 65.1 µM) | 3.9 (≈ 13.7 µM) | 5.5 (≈ 19.3 µM) | 6.4 (≈ 22.5 µM) |
| COc1ccc2c(c1)OC1c3ccc(O)c(O)c3OCC21 (stereo unspecified) [VESTICARPAN] | 2.7 (≈ 9.43 µM) | 10 (≈ 34.9 µM) | 6.9 (≈ 24.1 µM) | 7.3 (≈ 25.5 µM) | 12.4 (≈ 43.3 µM) |
| O=C1C[C@@H](c2ccc(O)cc2)Oc2cc(O)ccc21 [LIQUIRTIGENIN] | 5 (≈ 19.5 µM) | > 25 | 22.5 (≈ 87.8 µM) | > 25 | 19.5 (≈ 76.1 µM) |
